Measured values: PubChem BioAssay AID328 (DTP/NCI, 2004)
Values joined by “and” are separate entries in the source; they are usually repeats but may differ in a detail not shown here. Identical values can stand only once. Toxic doses and inconclusive results are not listed.

Tested on: BDF1 mice, P388 leukemia ip, median survival T/C
Assay: NCI In Vivo Anticancer Drug Screen. Data for tumor model P388 Leukemia (intraperitoneal) in B6D2F1 (BDF1) mice
Conditions: endpoint: median survival time, higher = longer survival
Method in brief: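 Each value expresses how treatment altered survival: treated-mouse outcome over vehicle-mouse outcome, both groups bearing the transplanted tumour.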

[1] = dose: 50.0 mg/kg/injection, schedule: Q01DX009 (ip), vehicle: saline with Tween-80
[2] = dose: 100.0 mg/kg/injection, schedule: Q01DX009 (ip), vehicle: saline with Tween-80
[3] = dose: 200.0 mg/kg/injection, schedule: Q01DX009 (ip), vehicle: saline with Tween-80
[4] = dose: 100.0 mg/kg/injection, schedule: Q04DX003 (ip), vehicle: saline with Tween-80
[5] = dose: 200.0 mg/kg/injection, schedule: Q04DX003 (ip), vehicle: saline with Tween-80
[6] = dose: 400.0 mg/kg/injection, schedule: Q01DX009 (ip), vehicle: saline with Tween-80
[7] = dose: 400.0 mg/kg/injection, schedule: Q04DX003 (ip), vehicle: saline with Tween-80
[8] = dose: 25.0 mg/kg/injection, schedule: Q01DX009 (ip), vehicle: Klucel (hydroxypropylcellulose) (HPC)
[9] = dose: 100.0 mg/kg/injection, schedule: Q01DX009 (ip), vehicle: Klucel (hydroxypropylcellulose) (HPC)
[10] = dose: 100.0 mg/kg/injection, schedule: Q04DX003 (ip), vehicle: Klucel (hydroxypropylcellulose) (HPC)
[11] = dose: 200.0 mg/kg/injection, schedule: Q04DX003 (ip), vehicle: Klucel (hydroxypropylcellulose) (HPC)
[12] = dose: 400.0 mg/kg/injection, schedule: Q04DX003 (ip), vehicle: Klucel (hydroxypropylcellulose) (HPC)
[13] = dose: 2.0 mg/kg/injection, schedule: Q01DX009 (ip), vehicle: saline
[14] = dose: 3.0 mg/kg/injection, schedule: Q01DX009 (ip), vehicle: saline

For `CN1C(=O)NNC(=O)c2ccccc21`, the T/C [1] was 106 % of control, the T/C [2] was 100 % of control and the T/C [3] was 97 % of control.

In the case of `CCc1c(-c2ccccc2)[nH]c2ccccc12`, the T/C [1] is reported as 115 % of control, the T/C [2] is reported as 113 % of control and the T/C [3] is reported as 123 % of control.

In the case of `Nc1[nH]nc2nccnc12`, the T/C [2] is reported as 108 % of control, the T/C [4] is reported as 100 % of control and the T/C [3] is reported as 100 % of control. For the same compound, the T/C [5] was 104 % of control, the T/C [6] was 100 % of control and the T/C [7] was 109 % of control.

`N#CCC(N)=C(C#N)C#N` was tested, and the T/C [8] was 100 % of control, the T/C (dose: 25.0 mg/kg/injection, schedule: Q04DX003 (ip), vehicle: Klucel (hydroxypropylcellulose) (HPC)) was 95 % of control and the T/C (dose: 50.0 mg/kg/injection, schedule: Q01DX009 (ip), vehicle: Klucel (hydroxypropylcellulose) (HPC)) was 87 % of control. For the same compound, the T/C (dose: 50.0 mg/kg/injection, schedule: Q04DX003 (ip), vehicle: Klucel (hydroxypropylcellulose) (HPC)) was 104 % of control, the T/C [9] was 95 % of control and the T/C [10] was 100 % of control and 104 % of control.

With `COc1ccc(C2=CC(c3ccc4c(c3)OCO4)c3c(c4ccccc4oc3=O)O2)cc1OC` (stereo not given) the T/C (dose: 12.5 mg/kg/injection, schedule: Q01DX009 (ip), vehicle: water) was 96 % of control, the T/C (dose: 25.0 mg/kg/injection, schedule: Q01DX009 (ip), vehicle: water) was 106 % of control and the T/C (dose: 50.0 mg/kg/injection, schedule: Q01DX009 (ip), vehicle: water) was 102 % of control. For the same compound, the T/C (dose: 50.0 mg/kg/injection, schedule: Q04DX003 (ip), vehicle: water) was 101 % of control, the T/C (dose: 100.0 mg/kg/injection, schedule: Q01DX009 (ip), vehicle: water) was 93 % of control and the T/C (dose: 100.0 mg/kg/injection, schedule: Q04DX003 (ip), vehicle: water) was 110 % of control. The T/C (dose: 200.0 mg/kg/injection, schedule: Q04DX003 (ip), vehicle: water) was 94 % of control and the T/C (dose: 400.0 mg/kg/injection, schedule: Q04DX003 (ip), vehicle: water) was 94 % of control.

With `c1ccc(CC2(Cc3ccccc3)SCCS2)cc1` the T/C [9] was 105 % of control, the T/C [10] was 95 % of control and the T/C (dose: 200.0 mg/kg/injection, schedule: Q01DX009 (ip), vehicle: Klucel (hydroxypropylcellulose) (HPC)) was 105 % of control. The T/C [11] was 104 % of control, the T/C (dose: 400.0 mg/kg/injection, schedule: Q01DX009 (ip), vehicle: Klucel (hydroxypropylcellulose) (HPC)) was 115 % of control and the T/C [12] was 104 % of control.

For `CC(C)C(=O)OCC1OC(n2cnc3c(=S)nc(N)[nH]c32)C(OC(=O)C(C)C)C1OC(=O)C(C)C` (stereo not given), the T/C [8] was 92 % of control.

In the case of `CCCCCc1ccc2oc(=O)c3ccc(C)cc3c2c1O`, the T/C (dose: 1.5 mg/kg/injection, schedule: Q01DX009 (ip), vehicle: Klucel (hydroxypropylcellulose) (HPC)) is reported as 95 % of control, the T/C (dose: 3.0 mg/kg/injection, schedule: Q01DX009 (ip), vehicle: Klucel (hydroxypropylcellulose) (HPC)) is reported as 104 % of control and the T/C (dose: 6.0 mg/kg/injection, schedule: Q01DX009 (ip), vehicle: Klucel (hydroxypropylcellulose) (HPC)) is reported as 104 % of control. For the same compound, the T/C (dose: 6.25 mg/kg/injection, schedule: Q01DX009 (ip), vehicle: Klucel (hydroxypropylcellulose) (HPC)) was 92 % of control, the T/C [10] was 100 % of control and the T/C [11] was 100 % of control. For the same compound, the T/C [12] was 95 % of control.

In the case of `Cc1ccn(/C(N)=N/C(=S)Nc2ccccc2)n1`, the T/C (dose: 37.5 mg/kg/injection, schedule: Q01DX009 (ip), vehicle: saline with Tween-80) is reported as 108 % of control, the T/C (dose: 75.0 mg/kg/injection, schedule: Q01DX009 (ip), vehicle: saline with Tween-80) is reported as 90 % of control and the T/C (dose: 150.0 mg/kg/injection, schedule: Q01DX009 (ip), vehicle: saline with Tween-80) is reported as 114 % of control.

`COc1cc2c(c(OC)c1OC)-c1cc3c(cc1[C@@H](OC(C)=O)[C@@H]1COC(=O)[C@H]1C2)OCO3` was tested, and the T/C (dose: 1.0 mg/kg/injection, schedule: Q01DX009 (ip), vehicle: saline + alcohol) was 118 % of control, the T/C (dose: 1.3 mg/kg/injection, schedule: Q01DX009 (ip), vehicle: saline) was 100 % of control and the T/C (dose: 1.77 mg/kg/injection, schedule: Q01DX009 (ip), vehicle: saline) was 100 % of control. For the same compound, the T/C (dose: 2.0 mg/kg/injection, schedule: Q01DX009 (ip), vehicle: saline + alcohol) was 118 % of control, the T/C [13] was 100 % of control and the T/C (dose: 2.66 mg/kg/injection, schedule: Q01DX009 (ip), vehicle: saline) was 90 % of control. For the same compound, the T/C [14] was 104 % of control, the T/C (dose: 4.0 mg/kg/injection, schedule: Q01DX009 (ip), vehicle: saline + alcohol) was 118 % of control and the T/C (dose: 4.0 mg/kg/injection, schedule: Q01DX009 (ip), vehicle: saline) was 90 % of control. For the same compound, the T/C (dose: 6.0 mg/kg/injection, schedule: Q01DX009 (ip), vehicle: saline) was 100 % of control, the T/C (dose: 6.22 mg/kg/injection, schedule: Q01DX009 (ip), vehicle: saline + alcohol) was 116 % of control and the T/C (dose: 8.0 mg/kg/injection, schedule: Q01DX009 (ip), vehicle: saline + alcohol) was 113 % of control. For the same compound, the T/C (dose: 8.9 mg/kg/injection, schedule: Q01DX009 (ip), vehicle: saline) was 104 % of control, the T/C (dose: 9.33 mg/kg/injection, schedule: Q01DX009 (ip), vehicle: saline + alcohol) was 112 % of control and the T/C (dose: 12.0 mg/kg/injection, schedule: Q01DX009 (ip), vehicle: saline) was 115 % of control. The T/C (dose: 13.3 mg/kg/injection, schedule: Q01DX009 (ip), vehicle: saline) was 113 % of control, the T/C (dose: 14.0 mg/kg/injection, schedule: Q01DX009 (ip), vehicle: saline + alcohol) was 120 % of control and the T/C (dose: 18.0 mg/kg/injection, schedule: Q01DX009 (ip), vehicle: saline) was 100 % of control. For the same compound, the T/C (dose: 20.0 mg/kg/injection, schedule: Q01DX009 (ip), vehicle: saline) was 109 % of control and the T/C (dose: 21.0 mg/kg/injection, schedule: Q01DX009 (ip), vehicle: saline + alcohol) was 91 % of control.

In the case of `CC[n+]1cccc(NC(=O)c2ccc(NC(=O)c3ccc(C(=O)Nc4ccc(C(=O)Nc5ccc[n+](CC)c5)cc4)cc3)cc2)c1`, the T/C (dose: 0.44 mg/kg/injection, schedule: Q04DX003 (ip), vehicle: saline) is reported as 118 % of control, the T/C (dose: 0.88 mg/kg/injection, schedule: Q01DX009 (ip), vehicle: saline) is reported as 150 % of control and the T/C (dose: 1.32 mg/kg/injection, schedule: Q01DX009 (ip), vehicle: saline) is reported as 163 % of control. The T/C [13] was 190 % of control, the T/C (dose: 2.77 mg/kg/injection, schedule: Q01DX009 (ip), vehicle: saline) was 204 % of control and the T/C [14] was 177 % of control. The T/C (dose: 4.17 mg/kg/injection, schedule: Q01DX009 (ip), vehicle: saline) was 191 % of control, the T/C (dose: 6.25 mg/kg/injection, schedule: Q01DX009 (ip), vehicle: saline) was 183 % of control and 220 % of control and the T/C (dose: 9.38 mg/kg/injection, schedule: Q01DX009 (ip), vehicle: saline) was 237 % of control. The T/C (dose: 11.0 mg/kg/injection, schedule: Q04DX003 (ip), vehicle: saline) was 168 % of control, the T/C (dose: 12.5 mg/kg/injection, schedule: Q01DX009 (ip), vehicle: saline) was 295 % of control and the T/C (dose: 16.5 mg/kg/injection, schedule: Q04DX003 (ip), vehicle: saline) was 200 % of control. The T/C (dose: 25.0 mg/kg/injection, schedule: Q01DX009 (ip), vehicle: saline) was 90 % of control, the T/C (dose: 25.0 mg/kg/injection, schedule: Q04DX003 (ip), vehicle: saline) was 200 % of control and the T/C (dose: 37.5 mg/kg/injection, schedule: Q04DX003 (ip), vehicle: saline) was 181 % of control.

`COc1ccc(NC(=O)CCC(=O)O)cc1` was tested, and the T/C [4] was 92 % of control, the T/C [5] was 88 % of control and the T/C [7] was 88 % of control.

For `CC(=O)CC(=O)OCc1ccccc1`, the T/C [2] was 100 % of control, the T/C [3] was 118 % of control and the T/C [6] was 100 % of control.

With `COc1cccc2c1C(=O)c1c(O)c3c(c(O)c1C2=O)C[C@@](O)(C(C)=O)C[C@@H]3OC1CC(NC=O)C(O)C(C)O1` (stereo not given in full) the T/C (dose: 0.25 mg/kg/injection, schedule: Q01DX009 (ip), vehicle: water) was 108 % of control and 110 % of control, the T/C (dose: 0.5 mg/kg/injection, schedule: Q01DX009 (ip), vehicle: water) was 110 % of control and 117 % of control and the T/C (dose: 1.0 mg/kg/injection, schedule: Q01DX009 (ip), vehicle: water) was 107 % of control. For the same compound, the T/C (dose: 2.0 mg/kg/injection, schedule: Q01DX009 (ip), vehicle: water) was 186 % of control, the T/C (dose: 4.0 mg/kg/injection, schedule: Q01DX009 (ip), vehicle: water) was 205 % of control and the T/C (dose: 8.0 mg/kg/injection, schedule: Q01DX009 (ip), vehicle: water) was 169 % of control.
